Laboratory results from patent publication US20090298887A1, “METHOD FOR IMPROVING HARVESTED SEED QUALITY” (Syngenta Corp Protection, Inc., priority 2004, published 2009).

Assays:
[1] = system: soybean plants; assay: Warm germination test of seeds harvested from treated soybean plants; format: in vivo
From the text: A preferred test of seed germination is a warm germination test because it is used for labeling purposes. Germination is defined as: “the emergence and development from the seed embryo of those essential structures which are indicative of the ability to produce a normal plant under favorable conditions.” The warm germination test reflects the stand producing potential of a seed lot under ideal planting conditions. In a typical warm germination test, 400 seeds from each seed lot are placed under moist conditions on blotters, rolled towels, or sand and maintained at 77° F. for about seven days. At the end of this period the seedlings are categorized as normal, abnormal, or diseased, and dead or hard seeds. The percentage germination is calculated from the number of normal seedlings from the total number of seeds evaluated.
(§1) In the method of the present invention, seeds harvested from plants treated with a foliar insecticide, or seeds harvested from plants whose pre-planted seeds were treated with a seed treatment insecticide, or seeds harvested from plants that underwent both treatments, both as the pre-planted seed (seed treatment) and as the post emergent plant (foliar insecticide treatment) were tested in warm germination and accelerated aging tests to determine the health and quality of the harvested seeds. In accordance with the germination tests, it was discovered that seed-producing plants resulting from the growers' application of insecticides at the seed stage, the foliar stage, and both, not only were healthier plants, but they also produced healthier seeds.
(§2) Germination studies were conducted on soybean plants comparing plants treated with a combination of fungicides with plants (1) wherein only insecticidal seed treatment was applied; (2) wherein insecticidal seed treatment was applied followed by foliar insecticidal treatment on the resulting plant; and (3) wherein only foliar insecticide was applied to a plant grown from untreated seed.

[2] = system: soybean plants; assay: Accelerated aging test of seeds harvested from treated soybean plants; format: in vivo
Experimental: Another germination test, the accelerated aging test (AA), estimates the carryover potential of a seed lot in warehouse storage. The seeds are exposed to high temperatures and high relative humidity for short periods of time that cause seed deterioration. Seeds are suspended over water in a chamber for a period of time, for example 72 hours (wheat and soybeans) or 96 hours (corn), then tested in a standard warm germination test. This test only is usually used on seed whose longevity was in question.
as §1, §2

[3] = foliar insecticide only (2 applications), untreated seed
[4] = insecticidal seed treatment only, 30 g
[5] = insecticidal seed treatment only, 50 g

Structure (SMILES) | Warm Germination (+/−Std. Error) [1, 3] | Warm Germination (+/−Std. Error) ([1]; foliar insecticide only (8/8)) | Warm Germination (+/−Std. Error) ([1]; foliar insecticide only (8/12)) | Accelerated Aging (+/−Std. Error) [2, 3] | Accelerated Aging (+/−Std. Error) ([2]; foliar insecticide only (8/8)) | Accelerated Aging (+/−Std. Error) ([2]; foliar insecticide only (8/12)) | Warm Germination (+/−Std. Error) [1, 4] | Warm Germination (+/−Std. Error) [1, 5] | Accelerated Aging (+/−Std. Error) [2, 4] | Accelerated Aging (+/−Std. Error) [2, 5]
CC1(C)[C@H](C(=O)O[C@H](C#N)c2cccc(Oc3ccccc3)c2)[C@@H]1/C=C(\Cl)C(F)(F)F (racemic) [lambda cyhalothrin] | 92.5 (0.70) | 92.9 (0.81) | 91.1 (0.81) | 89.3 (1.06) | 89.7 (1.23) | 86.5 (1.23) | – | – | – | –
CN1COCN(Cc2cnc(Cl)s2)/C1=N\[N+](=O)[O-] [Thiamethoxam, thiamethoxam] | – | – | – | – | – | – | 91.4 (0.63) | 91.6 (0.65) | 86.7 (0.95) | 90.4 (0.98)
